# From patent US10723711B2, “1,1,1-trifluoro-3-hydroxypropan-2-yl carbamate derivatives and 1,1,1-trifluoro-4-hydroxybutan-2-yl carbamate derivatives as MAGL inhibitors” (PFIZER INC., priority 2015, dated 2020)
# Like-named read-outs stand apart in the source and are kept apart here.
# Columns and labels:
# Type in all cases: biochemical
# [1] = molecular target: T1, human recombinant Monoacylglycerol Lipase (Homo sapiens, UniProt Q99685); assay: MAGL inactivation, enzyme progress curves, kinact/KI; conditions: from enzyme progress curves, T = 0 min protocol; geometric mean of 2-4 determinations unless otherwise indicated
# T1 sequence (Q99685 1-303): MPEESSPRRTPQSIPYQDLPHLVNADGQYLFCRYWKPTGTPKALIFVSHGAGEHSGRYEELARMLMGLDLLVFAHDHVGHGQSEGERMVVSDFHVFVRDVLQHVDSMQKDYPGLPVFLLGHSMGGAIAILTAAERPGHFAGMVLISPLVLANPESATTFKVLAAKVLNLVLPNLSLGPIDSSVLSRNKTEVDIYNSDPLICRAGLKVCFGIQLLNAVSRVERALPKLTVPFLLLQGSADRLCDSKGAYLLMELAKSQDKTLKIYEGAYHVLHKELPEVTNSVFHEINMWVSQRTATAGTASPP
# Description: Assessment of MAGL inhibition utilizes human recombinant Monoacylglycerol Lipase and the fluorogenic substrate 7-hydroxycoumarinyl arachidonate (7-HCA, Biomol ST-502). 400 nL of a test compound at decreasing concentration (ranging from 150 μM down to 1.5 nM) was spotted into a 384-well back plate (PerkinElmer, 6007279) using a Labcyte Echo, followed by addition of 10 μL of MAGL enzyme in assay buffer (50 mM HEPES, pH 7.4, 100 mM NaCl, 5 mM MgCl2, 0.1% Triton X-100 and 25% glycerin). An equal volume of 7-HCA in assay buffer with 10% DMSO was added either immediately (T=0 min) or after a 30 minute incubation (T=30 min) to initiate the reaction. The final concentration of MAGL enzyme was […] and 7-HCA substrate was 5 μM. After these dilutions, the final concentration of the test compound ranged from 3 μM to 0.03 nM. The reaction was allowed to progress for 60 minutes, after which the plate was read at an Ex/Em of 340/465. Percent inhibitions were calculated based on control wells containing no compound (0% inhibition) and a control compound (e.g., a MAGL inhibitor whose activity is known or was previously reported in the literature, such as one with about 100% inhibition). IC50 values were generated based on a four parameter fit model using ABASE software from IDBS. See e.g., Wang, Y. et al., “A Fluorescence-Based Assay for Monoacylglycerol Lipase Compatible with Inhibitor Screening,” Assay and Drug Development Technologies, 2008, Vol. 6 (3) pp 387-393 (reporting an assay for measuring MAGL activity).
# To measure MAGL inactivation, the same protocol for the (T=0 min) MAGL inhibition IC50 assay was performed with data collected every minute to acquire enzyme progress curves at decreasing concentrations of compound.
# [2] = molecular target: T1, human recombinant Monoacylglycerol Lipase; assay: MAGL inhibition enzymatic assay, fluorogenic substrate 7-HCA, IC50 at T=0 min or after 30 minute incubation (T=30 min); conditions: geometric mean of 2-4 determinations unless otherwise indicated
# Description: An equal volume of 7-HCA in assay buffer with 10% DMSO was added either immediately (T=0 min) or after a 30 minute incubation (T=30 min) to initiate the reaction. […] After these dilutions, the final concentration of the test compound ranged from 3 μM to 0.03 nM. […] IC50 values were generated based on a four parameter fit model using ABASE software from IDBS.
# [3] = molecular target: T2, human recombinant FAAH (Homo sapiens, UniProt O00519); assay: FAAH inhibition enzymatic assay, fluorescent substrate Arachidonoyl-AMC, 30 minute incubation; conditions: T = 30 min (30 minute incubation); geometric mean of 2-4 determinations unless otherwise indicated
# T2 construct: purchased Cayman 10010183
# T2 sequence (O00519 1-579): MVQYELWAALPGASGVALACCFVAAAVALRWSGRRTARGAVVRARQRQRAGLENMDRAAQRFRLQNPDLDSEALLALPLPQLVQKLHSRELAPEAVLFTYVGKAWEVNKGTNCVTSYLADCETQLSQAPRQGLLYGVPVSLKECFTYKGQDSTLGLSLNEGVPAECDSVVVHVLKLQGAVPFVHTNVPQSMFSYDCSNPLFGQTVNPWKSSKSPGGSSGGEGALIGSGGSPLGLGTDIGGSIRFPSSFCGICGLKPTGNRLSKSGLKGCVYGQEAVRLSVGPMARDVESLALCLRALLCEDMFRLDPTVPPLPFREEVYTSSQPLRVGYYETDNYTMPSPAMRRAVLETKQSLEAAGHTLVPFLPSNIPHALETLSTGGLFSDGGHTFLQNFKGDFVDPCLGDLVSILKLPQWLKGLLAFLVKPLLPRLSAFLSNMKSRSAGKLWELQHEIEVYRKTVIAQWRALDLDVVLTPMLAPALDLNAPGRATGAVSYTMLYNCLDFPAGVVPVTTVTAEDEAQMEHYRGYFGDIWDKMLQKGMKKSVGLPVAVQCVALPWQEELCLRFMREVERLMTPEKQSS
# Description: Assessment of FAAH inhibition utilizes human recombinant FAAH and the fluorescent substrate, Arachidonoyl-AMC. 400 nL of a test compound at decreasing concentrations was spotted into a 384-well back plate (PerkinElmer, 6007279) using a Labcyte Echo, followed by addition of 10 μl of FAAH enzyme (Cayman 10010183) in assay buffer (50 mM Tris, pH 9.0, 1 mM EDTA). After a 30 minute incubation at room temperature, 10 μL of Arachidonyl-AMCA was added in assay buffer with 16% DMSO. Final concentration of FAAH enzyme was 0.0125 Units and AAMCA substrate was used at the Km of 5 μM. […] The reaction was allowed to progress for 60 minutes, after which the plate was read on a Molecular Devices FlexStation reader at an Ex/Em of 355/460. Percent inhibitions were calculated based on controls wells containing either no compound (0% inhibition) or a control compound (e.g., an FAAH inhibitor whose activity is known or was previously reported in the literature, such as one with about 100% inhibition). IC50 values were generated based on a four parameter fit model using ABASE software from IDBS.
# [4] = T = 0 min (substrate added immediately), read-out: MAGL (T = 0 min) IC50
# [5] = T = 30 min (30 minute incubation), read-out: MAGL (T = 30 min) IC50
SMILES,MAGL kinact/KI [1],"IC50 [2, 4]","IC50 [2, 5]",IC50 [3]
O=C(O[C@H](CO)C(F)(F)F)N1C[C@@H]2[C@H](C1)[C@H]2c1ccn(Cc2ccccn2)n1 [Example 37],1616 1/s per M,357 nM,27 nM,
O=C(OC(C(F)(F)F)C(F)(F)CO)N1C[C@@H]2[C@H](C1)[C@H]2c1ccn(-c2ccc(F)cc2)n1 (some centres unmarked) [Example 39],9893 1/s per M,34 nM,2 nM,6010 nM
"CCN([C@H]1COC2(CCN(C(=O)O[C@H](CO)C(F)(F)F)CC2)C1)S(=O)(=O)c1ccccc1 [Example 92, (2R)-1,1,1-Trifluoro-3-hydroxypropan-2-yl (3R)-3-[ethyl(phenylsulfonyl)amino]-1-oxa-8-azaspiro[4.5]decane-8-carboxylate]",215500 1/s per M,6 nM,1 nM,> 30000 nM
Cc1ccc(C2COC3(CCN(C(=O)O[C@H](CO)C(F)(F)F)CC3)C2)cn1 (mixture of isomers) [Example 123],,349 nM,30 nM,24600 nM
O=C(O[C@H](CO)C(F)(F)F)N1CCC2(CC1)CN(Cc1ccc(F)cc1)CCO2 [Example 42],2591 1/s per M,304 nM,32 nM,
COc1ccc(-n2ccc([C@H]3[C@@H]4CN(C(=O)O[C@H](CO)C(F)(F)F)C[C@@H]43)n2)cn1 [Example 69],4621 1/s per M,104 nM,11 nM,
"COc1ccc(-n2ccc([C@H]3[C@@H]4CN(C(=O)O[C@H](CO)C(F)(F)F)C[C@@H]43)n2)nc1 [Example 1, (2R)-1,1,1-trifluoro-3-hydroxypropan-2-yl (1α,5α,6α)-6-[1-(5-methoxypyridin-2-yl)-1H-pyrazol-3-yl]-3-azabicyclo[3.1.0]hexane-3-carboxylate]",7806 1/s per M,85 nM,14 nM,
"CN([C@H]1COC2(CCN(C(=O)O[C@H](CO)C(F)(F)F)CC2)C1)S(=O)(=O)c1ccccc1 [Example 15, (2R)-1,1,1-trifluoro-3-hydroxypropan-2-yl (3R)-3-[methyl(phenylsulfonyl)amino]-1-oxa-8-azaspiro[4.5]decane-8-carboxylate]",44421 1/s per M,17 nM,2 nM,
COP(=O)(OC)OC[C@@H](OC(=O)N1CCC2(CC1)CN(S(=O)(=O)c1ccc(F)cc1)CCO2)C(F)(F)F [Example 86],132 1/s per M,97 nM,8 nM,
Cc1ccc(S(=O)(=O)N2CCOC3(CCN(C(=O)O[C@H](CO)C(F)(F)F)CC3)C2)cc1Cl [Example 59],59048 1/s per M,15 nM,1 nM,
"O=C(O[C@H](CO)C(F)(F)F)N1CCC2(CC1)CN(CC1CCCOC1)CCO2 (single isomer, unassigned) [Example 4]",5489 1/s per M,166 nM,19 nM,
O=C(O[C@H](CO)C(F)(F)F)N1CCC2(CC1)CN(S(=O)(=O)c1ccc(F)c(Cl)c1)CCO2 [Example 60],19870 1/s per M,37 nM,2 nM,
"O=C(OC(C(F)(F)F)C(F)(F)CO)N1CCC2(CC1)CN(S(=O)(=O)c1ccc(F)cc1)CCO2 (single isomer, unassigned; ent-2) [Example 21, 1,1,1,3,3-Pentafluoro-4-hydroxybutan-2-yl 4-[(4-fluorophenyl)sulfonyl]-1-oxa-4,9-diazaspiro[5.5]undecane-9-carboxylate, ENT-2]",,599 nM,53 nM,
"O=C(O[C@H](CO)C(F)(F)F)N1CCC2(CC1)CC(n1cccn1)CO2 (single isomer, unassigned) [Example 103]",,334 nM,30 nM,> 30000 nM
O=C(OC(CO)C(F)(F)F)N1CCC(c2ccnc(N3CCOCC3)n2)CC1 (centres unmarked) [Example 35],,339 nM,32 nM,
"O=C(O[C@H](CO)C(F)(F)F)N1CCC2(CC1)CN(S(=O)(=O)N1CCOCC1)CCO2 [Example 22, (2R)-1,1,1-Trifluoro-3-hydroxypropan-2-yl 4-(morpholin-4-ylsulfonyl)-1-oxa-4,9-diazaspiro[5.5]undecane-9-carboxylate]",,2640 nM,192 nM,

# The next lines start with the values.
MAGL kinact/KI [1],"IC50 [2, 4]","IC50 [2, 5]",IC50 [3],SMILES
10340 1/s per M,43 nM,4 nM,> 30000 nM,Cc1cc(S(=O)(=O)N2CCOC3(CCN(C(=O)O[C@H](CO)C(F)(F)F)CC3)C2)ccc1F [Example 51]
7304 1/s per M,53 nM,5 nM,,Cc1cnc(OC2CCN(C(=O)O[C@H](CO)C(F)(F)F)CC2)c(C)c1 [Example 61]
85270 1/s per M,109 nM,24 nM,,"O=C(O[C@H](CO)C(F)(F)F)N1CCC2(CC1)CN(S(=O)(=O)c1ccc(F)cc1)C(O)CO2 (mixture of isomers) [Example 29, (2R)-1,1,1-Trifluoro-3-hydroxypropan-2-yl 4-[(4-fluorophenyl)sulfonyl]-3-hydroxy-1-oxa-4,9-diazaspiro[5.5]undecane-9-carboxylate]"
8426 1/s per M,130 nM,12 nM,,O=C(O[C@H](CO)C(F)(F)F)N1CCC2(CC1)CC(OCc1ccccc1)CO2 (mixture of isomers) [Example 132]
30591 1/s per M,29 nM,4 nM,,O=C(O[C@H](CO)C(F)(F)F)N1CCC2(CC1)CN(S(=O)(=O)NCc1ccccc1)CCO2 [Example 67]
9358 1/s per M,99 nM,17 nM,,"CC1N(S(=O)(=O)c2ccc(F)cc2)CCOC12CCN(C(=O)O[C@H](CO)C(F)(F)F)CC2 (single isomer, unassigned) [Example 71]"
,> 3000 nM,> 1680 nM,,O=C(O[C@H](CO)C(F)(F)F)N1CCC2(CC1)CN(S(=O)(=O)CCCN1CCCC1)CCO2 [Example 54]
5998 1/s per M,126 nM,10 nM,,Cc1ccc(OC2CCN(C(=O)O[C@H](CO)C(F)(F)F)CC2)nc1 [Example 57]
